# Reference: US8993562B2, “Imidazo[1,2-b]pyridazines, processes, uses, intermediates and compositions” (Ferrer Internacional, S.A., priority 2006, dated 2015)
# Columns and labels:
# male CD1 mice = assay: In vivo predictive sedation-hypnosis test (traveled distance); conditions: Mus musculus, ip, 0.5 h, traveled distance over 30 min versus control, read-out: % inhib motor activity; for inhibition in vivo at 0.98 µmol/kg: 0.98 μmol/kg intraperitoneal; for inhibition in vivo at 98 µmol/kg: 98.0 μmol/kg intraperitoneal
# Protocol: b) In Vivo Determination of Predictive Sedative-hypnotic Action
# The in vivo effects of these compounds were assessed by a predictive sedation-hypnosis test in mice (D. J. Sanger et al., Eur. J. Pharmacol., 313, 35-42, 1996; and G. Griebel et al., Psychopharmacology, 146, 205-213, 1999).
# Groups of 5-8 male CD1 mice, weighing 22-26 g at the time of test, were used. […] Compounds were suspended in 0.25% agar with one drop of Tween in a volume of 10 mL/kg. Control animals were given the vehicle alone. Using a Smart System (Panlab, S. L., Spain) the traveled distance in cm is recorded for each mouse at 5-minutes intervals during a period of 30 minutes after dosing. The inhibition percentage of traveled distance of treated animals versus control animals (the first 5 minutes were discarded) was calculated.
# α2-GABAA receptor = assay: Ligand-binding assay, radiolabeled flumazenil competition, spinal cord membranes; conditions: rat spinal cord membranes, radiolabeled flumazenil 1 nM
# Protocol: (§1) a) Ligand-binding Assays. Determination of the Affinity of Test Compounds for α1- and α2-GABAA Receptor
# (§2) Male Sprague-Dawley rats weighing 200-250 g at the time of experiment were used. After decapitation of the animal, the cerebellum (tissue that mostly contains α1-GABAA receptor) and spinal cord (tissue that mostly contains α2-GABAA receptor) were removed. The membranes were prepared according to the method by J. Lameh et al. (Prog. Neuro-Psychopharmacol. Biol. Psychiatry, 24, 979-991, 2000) and H. Noguchi et al. (Eur J Pharm, 434, 21-28, 2002) with slight modifications. Once the tissues weighed, they were suspended in 50 mM Tris.HCl (pH 7.4), 1:40 (v/v), or sucrose 0.32 M in the case of spinal cord, homogenized and then centrifuged at 20000 g for 10 minutes at 7° C. The resulting pellet was resuspended under the same conditions and centrifuged again. The pellet was finally resuspended on a minimum volume and kept at −80° C. overnight. A slight modification was used in the case of spinal cord at the first centrifugation step. Centrifugation speed was at 1000 g and the supernatant was collected instead of discarded as in cerebellum. Then, supernatant was centrifuged at 20000 g and resuspended twice more under the same conditions described above for cerebellum. On the next day, the process was repeated until the final pellet was resuspended at a ratio of 1:10 (v/v) in the case of cerebellum and at a ratio of 1:5 (v/v) in the case of spinal cord.
# (§3) Affinity was determined by competitive tests using radiolabeled flumazenil as ligand. The tests were performed according to the methods described by S. Arbilla et al. (Eur. J. Pharmacol., 130, 257-263, 1986); and Y. Wu et al. (Eur. J. Pharmacol., 278, 125-132, 1995) using 96-well microtiter plates. The membranes containing the study receptors, flumazenil (radiolabeling at a final concentration of 1 nM) and ascending concentrations of test compounds (in a total volume of 230 μl in 50 mM [pH 7.4] Tris.HCl buffer) were incubated. Simultaneously, the membranes were only incubated with the radiolabeled flumazenil (total binding, 100%) and in the presence of an elevated concentration of unradiolabeled flumazenil (non-specific binding, % estimation of radiolabeled ligand). The reactions started on adding the radiolabeled ligand followed by incubation for 60 minutes at 4° C. At the end of the incubation period, 200 μl of reaction were transferred to a multiscreen plate (Millipore) and filtered using a vacuum manifold and then washed three times with cold test buffer. The multiscreen plates were equipped with a GF/B filter that retained the membranes containing the receptors and the radiolabeled ligand which had been bound to the receptors. After washing, the plates were left till dry. Once dried, scintillation liquid was added and left under stirring overnight. The next day the plates were counted using a Perkin-Elmer Microbeta scintillation counter.
# (§4) For analysis of the results the percentage of specific binding for every concentration of test compound was calculated as follows: specific binding−(X−N/T−N)×100 where, X: amount of bound ligand for every concentration of compound. T: total binding, maximum amount bound to the radiolabeled ligand. N: non-specific binding, amount of radiolabeled ligand bound in a non-specific way irrespective of the receptor used.
# (§5) Every concentrations of compound were tested in triplicate and their mean values were used to determine the experimental values of % specific binding versus the concentration of compound. Affinity data are expressed as % inhibition at 10^−5M and 10^−7M concentrations.
# α1-GABAA receptor = assay: Ligand-binding assay, radiolabeled flumazenil competition, cerebellum membranes; conditions: rat cerebellum membranes, radiolabeled flumazenil 1 nM
# Protocol: as §1, §2, §3, §4, §5
SMILES,inhibition in vivo at 0.98 µmol/kg (male CD1 mice),inhibition in vivo at 98 µmol/kg (male CD1 mice),"% inhib 10^−5 M, affinity for the α2-subunit of the GABAA receptor (α2-GABAA receptor)","% inhib 10^−7 M, affinity for the α2-subunit of the GABAA receptor (α2-GABAA receptor)","% inhib 10^−5 M, affinity for the α1-subunit of the GABAA receptor (α1-GABAA receptor)","% inhib 10^−7 M, affinity for the α1-subunit of the GABAA receptor (α1-GABAA receptor)"
"CCCN(CCC)C(=O)Cc1c(-c2ccccc2)nc2ccc(OC)nn12 [Example 26, 2-(6-Methoxy-2-phenyl-imidazo[1,2-b]pyridazin-3-yl)-N,N-dipropyl-acetamide]",19.2%,91.5%,84.5%,27.4%,100.0%,73.5%
"CCCN(CCC)C(=O)Cc1c(-c2ccccc2)nc2ccc(C)nn12 [Example 35, 2-(6-Methyl-2-phenyl-imidazo[1,2-b]pyridazin-3-yl)-N,N-dipropyl-acetamide]",6.76%,80.6%,92.5%,57.9%,100.2%,97.5%
"CCCN(CCC)C(=O)Cc1c(-c2ccc(F)cc2)nc2ccc(OC)nn12 [Example 41, 2-[2-(4-Fluoro-phenyl)-6-methoxy-imidazo[1,2-b]pyridazin-3-yl]-N,N-dipropyl-acetamide]",15.7%,91.2%,85.3%,17.0%,99.8%,75.4%
"CCCN(CCC)C(=O)Cc1c(-c2ccc(F)cc2)nc2ccc(OCC)nn12 [Example 43, 2-[6-Ethoxy-2-(4-fluoro-phenyl)-imidazo[1,2-b]pyridazin-3-yl]-N,N-dipropyl-acetamide]",–,95.7%,80.3%,20.1%,99.5%,49.9%
"COc1ccc2nc(-c3ccc(F)cc3)c(CC(=O)N3CCCCC3)n2n1 [Example 65, 2-[2-(4-Fluoro-phenyl)-6-methoxy-imidazo[1,2-b]pyridazin-3-yl]-1-piperidin-1-yl-ethanone]",–,95.5%,78.5%,16.3%,99.5%,58.5%
"CCOc1ccc2nc(-c3ccc(F)cc3)c(CC(=O)N(CC)CC)n2n1 [Example 66, 2-[6-Ethoxy-2-(4-fluoro-phenyl)-imidazo[1,2-b]pyridazin-3-yl]-N,N-diethyl-acetamide]",–,96%,79.4%,7.8%,98.3%,50.4%
"CCOc1ccc2nc(-c3ccc(F)cc3)c(CC(=O)N3CCCCC3)n2n1 [Example 67, 2-[6-Ethoxy-2-(4-fluoro-phenyl)-imidazo[1,2-b]pyridazin-3-yl]-1-piperidin-1-yl-ethanone]",–,90.8%,83.7%,8.8%,98.9%,42.2%
"CCN(CC)C(=O)Cc1c(-c2ccc(OC)cc2)nc2ccc(C)nn12 [Example 70, N,N-Diethyl-2-[2-(4-methoxy-phenyl)-6-methyl-imidazo[1,2-b]pyridazin-3-yl]-acetamide]",–,87%,80.3%,23.6%,99.9%,84.5%
"CCCN(CCC)C(=O)Cc1c(-c2ccc(OC)cc2)nc2ccc(C)nn12 [Example 71, 2-[2-(4-Methoxy-phenyl)-6-methyl-imidazo[1,2-b]pyridazin-3-yl]-N,N-dipropyl-acetamide]",–,96%,88.5%,50.6%,100.2%,95.0%
"COc1ccc(-c2nc3ccc(OC)nn3c2CC(=O)N2CCCCC2)cc1 [Example 78, 2-[6-Methoxy-2-(4-methoxy-phenyl)-imidazo[1,2-b]pyridazin-3-yl]-1-piperidin-1-yl-ethanone]",–,91.1%,–,–,98.3%,26.5%
"Cc1ccc(NC(=O)Cc2c(-c3ccc(C)cc3)nc3ccc(C)nn23)cc1 [Example 87, 2-(6-Methyl-2-p-tolyl-imidazo[1,2-b]pyridazin-3-yl)-N-p-tolyl-acetamide]",–,90.7%,–,–,99.3%,57.2%
"Cc1ccc(-c2nc3ccc(C)nn3c2CC(=O)NC2CCCC2)cc1 [Example 91, N-Cyclopentyl-2-(6-methyl-2-p-tolyl-imidazo[1,2-b]pyridazin-3-yl)-acetamide]",–,93%,–,–,99.1%,45.8%
"Cc1ccc(-c2nc3ccc(C)nn3c2CC(=O)NC2CC2)cc1 [Example 93, N-Cyclopropyl-2-(6-methyl-2-p-tolyl-imidazo[1,2-b]pyridazin-3-yl)-acetamide]",–,93.2%,–,–,100.0%,78.2%
"Cc1ccc(-c2nc3ccc(C)nn3c2CC(=O)Nc2ccc3ccccc3n2)cc1 [Example 94, 2-(6-Methyl-2-p-tolyl-imidazo[1,2-b]pyridazin-3-yl)-N-quinolin-2-yl-acetamide]",–,93.5%,–,–,100.1%,65.1%
"Cc1ccc(-c2nc3ccc(C)nn3c2CC(=O)NN2CCOCC2)cc1 [Example 105, 2-(6-Methyl-2-p-tolyl-imidazo[1,2-b]pyridazin-3-yl)-N-morpholin-4-yl-acetamide]",–,94%,–,–,98.8%,56.0%
"Cc1ccc(-c2nc3ccc(C)nn3c2CC(=O)NN2CCCCC2)cc1 [Example 106, 2-(6-Methyl-2-p-tolyl-imidazo[1,2-b]pyridazin-3-yl)-N-piperidin-1-yl-acetamide]",–,94%,–,–,99.5%,53.7%
